Results reported in ChEMBL document CHEMBL2069208, “Isolactarane and sterpurane sesquiterpenoids from the basidiomycete Phlebia uda” (J Nat Prod, 2012).
pIC50: −log10 of the molar value. Active and inactive are the calls of the source. No cut-off for these calls is given here.

What was measured:
HepG2 = assay: Growth inhibition of human HepG2 cells up to 50 ug/ml; assay type: functional, cell-based
Jurkat [1] = assay: Growth inhibition of human Jurkat cells up to 50 ug/mL; assay type: functional, cell-based
Botrytis cinerea = assay: Inhibition of spore germination of Botrytis cinerea assessed as compound concentration causing 75 to 100% germination inhibition; assay type: functional
Pyricularia grisea = assay: Inhibition of spore germination of Magnaporthe grisea assessed as compound concentration causing 75 to 100% germination inhibition; assay type: functional
Phytophthora infestans = assay: Inhibition of spore germination of Phytophthora infestans assessed as compound concentration causing 75 to 100% germination inhibition; assay type: functional
Fusarium graminearum = assay: Inhibition of spore germination of Fusarium graminearum assessed as compound concentration causing 75 to 100% germination inhibition; assay type: functional
Jurkat [2] = assay: Growth inhibition of human Jurkat cells; assay type: functional, cell-based

| SMILES | growth inhibition (GI) (HepG2) | growth inhibition (GI) (Jurkat [1]) | INH (Botrytis cinerea) [µg/mL] | INH (Pyricularia grisea) [µg/mL] | INH (Phytophthora infestans) [µg/mL] | INH (Fusarium graminearum) [µg/mL] | pIC50 (Jurkat [2]) |
| --- | --- | --- | --- | --- | --- | --- | --- |
| CC1=C2C[C@@](C)(CO)C[C@H]2C[C@]2(C)CC[C@]12O | inactive | inactive |  |  |  |  |  |
| CC1(C)CC2=C(C=O)[C@@]34C[C@]3(C[C@@H]2C1)C(=O)OC4O (stereo not given in full) |  |  | 50 | 10 | 25 | 10 |  |
| CC1=C2C[C@@](C)(C(=O)O)C[C@H]2C[C@]2(C)CC[C@]12O | inactive |  |  |  |  |  | 3.80 |
| CC1=C2C[C@@](C)(COC3OC(=O)[C@]45C[C@@H]6CC(C)(C)CC6=C(C=O)[C@]34C5)C[C@H]2C[C@]2(C)CC[C@]12O (mixture of isomers) [UDALACTARANE B] | inactive |  | >100 |  | 10 | 5 | 4.38 |
| Cc1cc(C2CCCCC2)n(O)c(=O)c1 [CICLOPIROX] |  |  | 50 |  |  |  |  |
| CCC(C)CCOC1OC(=O)[C@]23C[C@@H]4CC(C)(C)CC4=C(C=O)[C@]12C3 (mixture of isomers) [UDALACTARANE A] | inactive |  | >100 | 10 | 100 | 10 | 4.00 |
